From publication PMC3871595, “Structure Based Identification and Characterization of Flavonoids That Disrupt Human Papillomavirus-16 E6 Function” (PLoS ONE, 2013) come the findings set out here.

Series [1] relates to C33a cells. Description: cell viability (MTS, Celltiter 96 AQueous) C33a. The note with it: C33a (HPV negative), 48 to 96 hours, relative to DMSO. It is filed as cell-based, human. Here is the method: HPV-18 positive HeLa cells and two additional control cell lines, C33a, a cell line derived from an HPV-negative human cervical cancer isolate, and HaCat, a spontaneously immortalized human keratinocyte cell line, were used to assess compounds for their impact on cell growth and viability. All cells were incubated for 48 to 96 hours with increasing doses of compound. Cell viability was measured by MTS based assay and % viability quantified relative to cells treated with DMSO.
For cell viability, 12,000 cells per cm^2 were plated in 96-well dishes 24 hours prior to drug addition. Fresh media and compound were added. Plates were read after 72-96 hours. Relative cell viability was assayed as directed in the Celltiter 96 AQueous one solution assay (Promega). For caspase activity, plates were assayed after 4, 8, 12, 24, or 48 hours as described for the Caspase-Glo 3/7 assay (Promega).

In series [2] the target is GBF-E6 binding to E6apc2 peptide (Human papillomavirus type 16, UniProt P03126). Description: SPR competition, immobilized E6apc2 peptide, GBF-E6 analyte. The arrangement: species or system HPV-16. The note with it: 1.6-12.5 µM. As for the experimental part:
The E6apc2 peptide was derived from the third zinc finger of the Sp1 protein and incorporates 10 amino acids from the charged helical domain of E6AP ([…]) at its C-terminus. […] In this experiment, E6apc2 was immobilized while E6apc1 control (E6-non-binder) was immobilized in a reference cell.
(§1) SPR analysis was performed on a Biacore 3000 instrument. Immobilized GBFE6 [43] was diluted to 30μg/mL in 10 mM sodium acetate, pH 4.0 and 5.0 and immobilized onto the dextran matrix of a CM5 sensor chip (Biacore) using the amine coupling method. All binding experiments were performed at 25 °C in 50 mM phosphate (pH 6.5) containing 200 mM NaCl. Pulses of 10 mM glycine (pH 3.0) were used to regenerate the surfaces between injections. […] SPR data were analyzed using BIAevaluation 4.1 software (Biacore).

The target of series [3] is E6 fused to a GB1-fusion tag (GBF) (Human papillomavirus type 16, UniProt P03126). Description: surface plasmon resonance direct binding, immobilized GBF-E6. The arrangement: species or system HPV-16. The note with it: 1.6-12.5 µM. As for the experimental part: A reference cell with immobilized GBF was performed simultaneously for background subtraction. […] While direct binding was observed, the data could not be properly fit to determine binding affinity.
Sequence of E6 fused to a GB1-fusion tag (GBF) (P03126 whole entry, the tested form may be a part): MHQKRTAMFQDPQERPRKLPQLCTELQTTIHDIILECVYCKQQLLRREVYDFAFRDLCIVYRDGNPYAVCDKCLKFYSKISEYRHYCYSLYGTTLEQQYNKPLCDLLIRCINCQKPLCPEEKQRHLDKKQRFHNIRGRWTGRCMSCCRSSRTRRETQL
as §1
(In SPR one partner is held on a chip, and binding of the other changes the refractive index at the surface.)

Sequence of GBF-E6 binding to E6apc2 peptide (P03126 whole entry, the tested form may be a part): as above

In the case of `COc1cccc(-c2cc(=O)c3cc(-c4nnn[nH]4)ccc3o2)c1` [CAF-24], the “cell growth and viability” value in series [1] is “little effect on the viability”.

Regarding `O=c1cc(-c2ccc(O)c(O)c2)oc2cc(O)cc(O)c12` [luteolin, reference compound], in series [2], the “competition with E6apc2 peptide for binding to GBF-E6” value is reported as “directly competed with the peptide for binding to GBF-E6”. Moreover, in series [3], the “direct binding to E6 (SPR response)” value is “directly binds to E6 protein”.
